Source: US4469634A, “Allyloxy- and allylthio-2,3,4,5-tetrahydro-1H-3-benzazepines” (SmithKline Beckman Corporation, priority 1982, dated 1984)
Where a name gives a salt, the structure may show the parent alone. Read-outs that look alike come from different tables or passages of the source.

Legend:
alpha2-adrenoceptor = target: T1, alpha2-adrenoceptor (Cavia porcellus, UniProt Q60474); test: prejunctional alpha2-antagonist activity in isolated superfused guinea pig left atrium (shift of clonidine concentration-response curve); format: cell-based
T1 construct: The left atrium is removed, dissected free of extraneous tissue and mounted in a 2 ml superfusion chamber; from tissue; host or cells: left atrium of male guinea pig (sympathetic nerve terminals)
T1 sequence (Q60474 1-464): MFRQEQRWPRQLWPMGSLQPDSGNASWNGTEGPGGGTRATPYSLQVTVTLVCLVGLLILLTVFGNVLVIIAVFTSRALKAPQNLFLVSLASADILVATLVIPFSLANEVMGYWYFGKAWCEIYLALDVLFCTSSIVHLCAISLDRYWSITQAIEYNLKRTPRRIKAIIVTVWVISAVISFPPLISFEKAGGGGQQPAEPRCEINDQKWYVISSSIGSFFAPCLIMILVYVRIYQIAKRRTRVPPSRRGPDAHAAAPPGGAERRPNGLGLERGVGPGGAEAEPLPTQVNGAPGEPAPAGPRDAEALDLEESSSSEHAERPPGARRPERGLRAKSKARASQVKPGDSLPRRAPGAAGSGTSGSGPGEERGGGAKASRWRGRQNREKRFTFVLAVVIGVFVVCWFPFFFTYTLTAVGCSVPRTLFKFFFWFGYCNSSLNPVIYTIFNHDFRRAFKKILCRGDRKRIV
Description: Briefly, the heart is removed from a pentobarbital-anesthetized male guinea pig. The left atrium is removed, dissected free of extraneous tissue and mounted in a 2 ml superfusion chamber. The tissue is paced at 60 pulse/minute and the sympathetic nerves excited at 6 minute intervals by field stimulation. The response to nerve stimulation is measured as the difference in contractile force between the basal contraction and peak contraction following a nerve stimulation. A concentration-response curve for clonidine (a known alpha2 -agonist) is prepared by administering increasing concentrations of clonidine following each successive stimulation. The tissue is, then, superfused with the alpha2 -antagonist to be tested for thirty minutes and the clonidine concentration-effect curve is repeated in the presence of antagonist. The receptor dissociation constant of the antagonist (KB) is defined as the antagonist concentration required to shift the log concentration-response curve of the agonist to the right by a factor of 2.
Pharmacol. 309 217-224 (1979).

platelet = platelet test (method not described); format: cell-based

SMILES	Kb (alpha2-adrenoceptor) [nM]	EC50 (platelet) [nM]	Kb (alpha2-adrenoceptor; isolated superfused guinea pig left atrium, clonidine as agonist, antagonist superfused thirty minutes, read-out: KB, guinea pig atrium (receptor dissociation constant of the antagonist)) [nM]
C=CCSc1ccc2c(c1)CCNCC2 [Example 1, 7-allylthio-2,3,4,5-tetrahydro-1H-3-benzazepine hydrochloride]	380		
C=CCOc1ccc(Cl)c2c1CCN(C)CC2 [Example 2, 9-allyloxy-6-chloro-3-methyl-2,3,4,5-tetrahydro-1H-3-benzazepine hydrochloride]	320	90	
C=CCOc1cccc2c1CCN(C)CC2 [Example 5, 6-allyloxy-3-methyl-2,3,4,5-tetrahydro-1H-3-benzazepinehydrochloride]			160
